Laboratory results taken from publication PMC3938571, “Modulation of Basophils' Degranulation and Allergy-Related Enzymes by Monomeric and Dimeric Naphthoquinones” (PLoS ONE, 2014).
“Also recorded” adds a separate entry of the source. Each block holds one compound with its values, some of them ahead of it.

What was measured:
RBL-2H3 cells [1] = experiment: Histamine release in A23187-stimulated RBL-2H3 cells; type: cell-based, rat; details: 10 µM; A23187 1 µM stimulus
Description: RBL-2H3 cells were seeded at 3.0×10^5 cells/mL in 24-wells plate (1 mL/well), and assayed after 24h at near-confluent stage (∼90%). Two different degranulation stimuli were used: calcium ionophore A23187 500 ng/mL (1 µM) and an immunologic stimulus (100 ng/mL IgE anti-DNP followed by 100 ng/mL DNP-BSA) that we refer to as IgE/antigen (Fig. 2). Both stimuli induced degranulation, which was quantified by β-hexosaminidase and histamine release. With IgE/antigen, β-hexosaminidase release (p-nitrophenolate absorbance) increased by 65.4±6.8% above basal (n = 16; P<0.001), whereas histamine increased from the basal value of 0.156±0.151 µM towards 0.521±0.186 µM (n = 10; P<0.05). […] Thus, the ability of naphthoquinones to reduce β-hexosaminidase release was quantified for both stimuli, whereas effects upon histamine were only quantified with the A23187 stimulus, given the low histamine release and poor signal to noise achieved with IgE/antigen.
Before treatment with A23187, cells were incubated with individual naphthoquinones during 15 min, at 37°C. […] Compounds were freshly diluted prior to cell exposure using EBSS supplemented with 0.1% BSA [21]. β-hexosaminidase and histamine release was quantified in supernatants, whereas the MTT cell viability assay was performed on adherent cells. […]

[2] = system: leukotriene C4 production; experiment: Leukotriene C4 production in IgE/antigen-stimulated RBL-2H3 cells (EIA); type: cell-based, rat
soybean lipoxidase = molecular target: T1, soybean lipoxidase (Glycine max, UniProt P08170); experiment: Soybean lipoxidase inhibition, cell-free; type: biochemical, Glicine max (L.) Merr.; details: mean±SEM; for IC50: cell-free assay
T1 construct: purchased Sigma-Aldrich (St. Louis, MO, USA) type V-S; host or cells: soybean (plant preparation)
T1 sequence (P08170 1-839): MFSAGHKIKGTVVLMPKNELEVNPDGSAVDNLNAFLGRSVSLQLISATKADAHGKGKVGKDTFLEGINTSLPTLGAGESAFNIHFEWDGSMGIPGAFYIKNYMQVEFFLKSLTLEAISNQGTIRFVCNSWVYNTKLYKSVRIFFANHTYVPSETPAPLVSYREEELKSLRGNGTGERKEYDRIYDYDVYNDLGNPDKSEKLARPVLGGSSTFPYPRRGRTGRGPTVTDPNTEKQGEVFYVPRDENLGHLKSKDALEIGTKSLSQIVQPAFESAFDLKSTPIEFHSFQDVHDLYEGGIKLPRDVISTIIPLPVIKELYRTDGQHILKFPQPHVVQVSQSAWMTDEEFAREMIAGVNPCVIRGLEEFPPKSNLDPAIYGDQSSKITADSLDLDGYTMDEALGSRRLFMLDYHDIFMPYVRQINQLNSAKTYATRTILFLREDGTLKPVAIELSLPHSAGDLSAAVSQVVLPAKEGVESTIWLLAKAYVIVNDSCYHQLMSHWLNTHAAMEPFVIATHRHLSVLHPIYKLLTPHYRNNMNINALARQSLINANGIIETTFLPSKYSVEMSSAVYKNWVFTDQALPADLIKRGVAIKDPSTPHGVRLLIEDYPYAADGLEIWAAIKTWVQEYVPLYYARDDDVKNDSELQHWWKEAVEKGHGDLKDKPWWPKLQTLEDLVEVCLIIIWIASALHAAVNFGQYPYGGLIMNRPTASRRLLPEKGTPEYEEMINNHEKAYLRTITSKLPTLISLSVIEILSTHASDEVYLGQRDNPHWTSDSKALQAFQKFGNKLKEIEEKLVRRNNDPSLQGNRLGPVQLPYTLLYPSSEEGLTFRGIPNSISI
Description: Lipoxidase catalyses the oxidation of linoleic acid to the conjugated diene, 13-hydroperoxy linoleic acid, which was measured spectrophotometrically at 234 nm on a UV/visible spectrophotometer (UNICAM Helios α). The blank was measured in a reaction mixture with 20 µl of individual naphthoquinones solution, 1 ml of phosphate buffer (pH 9) and 20 µl of soybean lipoxidase 500 U. After 5 min pre-incubation at room temperature, the reaction was started by addition of 50 µl of substrate (linoleic acid) at 2 mM in ethanol. The reaction time was 3 min.

RBL-2H3 cells [3] = experiment: IgE/antigen-induced RBL-2H3 basophils' degranulation (β-hexosaminidase release); type: cell-based, rat; details: Rattus norvegicus, RBL-2H3, maximal inhibition, mean±SEM, read-out: Degranulation inhibition (%) IgE/antigen (decrease of β-hexosaminidase release)
Description: RBL-2H3 cells were seeded at 3.0×10^5 cells/mL in 24-wells plate (1 mL/well), and assayed after 24h at near-confluent stage (∼90%). Two different degranulation stimuli were used: calcium ionophore A23187 500 ng/mL (1 µM) and an immunologic stimulus (100 ng/mL IgE anti-DNP followed by 100 ng/mL DNP-BSA) that we refer to as IgE/antigen (Fig. 2). […] Thus, the ability of naphthoquinones to reduce β-hexosaminidase release was quantified for both stimuli, whereas effects upon histamine were only quantified with the A23187 stimulus, given the low histamine release and poor signal to noise achieved with IgE/antigen.
When the IgE/antigen was used as stimulus, cells were incubated during 16 h with 100 ng/ml IgE anti-DNP and with individual naphthoquinones diluted in culture medium. After washing twice with Dulbecco's phosphate buffered saline (DPBS), cells were treated for 1 h, at 37°C, with 100 ng/ml DNP-BSA and with individual naphthoquinones diluted in EBSS supplemented with 0.1% BSA (Fig. 2A). After treatments, supernatants were collected in order to quantify released β-hexosaminidase and released histamine, while cell viability assay was performed on adherent cells.
(§1) The release of β-hexosaminidase from stimulated-RBL-2H3 cells was measured as previously described. In a 96-wells plate, 50 µl of substrate solution [p-nitrophenyl N-acetyl-D-glucosamine 1.3 mg/ml in citrate buffer (pH 4.5)] were added to 30 µl of supernatant. The plate was incubated at 37°C, during 1 h.

RBL-2H3 cells [4] = experiment: Calcium ionophore A23187-induced RBL-2H3 degranulation (β-hexosaminidase release); type: cell-based, rat
Description: RBL-2H3 cells were seeded at 3.0×10^5 cells/mL in 24-wells plate (1 mL/well), and assayed after 24h at near-confluent stage (∼90%). Two different degranulation stimuli were used: calcium ionophore A23187 500 ng/mL (1 µM) and an immunologic stimulus (100 ng/mL IgE anti-DNP followed by 100 ng/mL DNP-BSA) that we refer to as IgE/antigen (Fig. 2). Both stimuli induced degranulation, which was quantified by β-hexosaminidase and histamine release. With IgE/antigen, β-hexosaminidase release (p-nitrophenolate absorbance) increased by 65.4±6.8% above basal (n = 16; P<0.001), whereas histamine increased from the basal value of 0.156±0.151 µM towards 0.521±0.186 µM (n = 10; P<0.05). With A23187, β-hexosaminidase release increased by 187±18.9% above basal (n = 12; P<0.001), whereas histamine increased towards 2.43±0.330 µM (n = 12; P<0.001). Thus, the ability of naphthoquinones to reduce β-hexosaminidase release was quantified for both stimuli, whereas effects upon histamine were only quantified with the A23187 stimulus, given the low histamine release and poor signal to noise achieved with IgE/antigen.
Before treatment with A23187, cells were incubated with individual naphthoquinones during 15 min, at 37°C. After that, A23187 1 µM was added and cells incubated for 30 min, at 37°C (Fig. 2B). Compounds were freshly diluted prior to cell exposure using EBSS supplemented with 0.1% BSA [21]. β-hexosaminidase and histamine release was quantified in supernatants, whereas the MTT cell viability assay was performed on adherent cells.
as §1, with “h. The reaction was stopped by the addition of 80 µl of NaOH 0.5 M and the reaction product, p-nitrophenolate, was measured spectrophotometrically at 405 nm, in a microplate reader (Multiskan ASCENT Thermo®).” for “h.”

[5] = system: hyaluronidase from bovine tests (type IV-S; EC 3.2.1.35); experiment: Hyaluronidase inhibition, cell-free (Morgan-Elson); type: biochemical; details: maximal inhibition, mean±SEM
Description: The reaction product, N-acetyl-sugar, was quantified according Morgan-Elson colour reaction with minor modifications. The Morgan-Elson reaction was started by addition of 25 µl disodium tetraborate 0.8 M and subsequent heating in a boiling water bath during 3 min. After cooling, 750 µl p-dimethylaminobenzaldehyde (DMAB) was added and the reaction mixture was incubated at 37°C for 20 min. […] The measurement was made spectrophotometrically, at 560 nm, in a microplate reader (Multiskan ASCENT Thermo®), [24]. Sodium cromoglycate was used as a positive control for inhibition.

leukotriene production = system: leukotriene production; parameters: method as in PMID 20460770; details: by inhibiting 5-lipoxygenase translocation to the nuclear membrane; cited from earlier work
[6] = system: prostaglandin H2 (PGH2) synthase; parameters: method as in PMID 2495300; details: via ROS production; read-out: IC50 for inhibition of prostaglandin H2 (PGH2) synthase; cited from earlier work
[7] = Rattus norvegicus, RBL-2H3, maximal inhibition, mean±SEM, read-out: Degranulation inhibition (%) A23187 (decrease of β-hexosaminidase release)

SMILES: Cc1cc(O)c2c(c1)C(=O)C(c1c(C)cc3c(c1O)C(=O)C=CC3=O)=CC2=O [Diospyrin, diospyrin]
Decrease of histamine release (RBL-2H3 cells [1]): 51.4±12.8%
Effect on leukotriene (LT) C4 levels evoked by IgE/antigen (in words) ([2]; 1 µM): unaffected; also recorded: unable to reduce leukotrien C4
inhibition at 36.7 µM (soybean lipoxidase; 36.7 µM, maximal inhibition): 65.6 ± 6.24%
IC50 (soybean lipoxidase): 28.9 ± 2.53 µM
inhibition at 1 µM (RBL-2H3 cells [3]): < 15%
inhibition at 10 µM (RBL-2H3 cells [4]; [7]): 56.8 ± 14.6%
Effect on A23187 (calcium ionophore)-induced degranulation (in words) (RBL-2H3 cells [4]; naphthazarin 0.1 µM, plumbagin 1 µM, diospyrin 10 µM, others at maximal tested concentrations): reduced degranulation
Hyaluronidase inhibition (%) ([5]; 20 µM): < 15 (20 µM) %

inhibition at 183.5 µM (soybean lipoxidase; maximal inhibition): 96.5 ± 0.92%
IC50 (soybean lipoxidase): 83.8 ± 9.33 µM
SMILES: Cc1cc(O)c2c(c1)C(=O)C(c1c(C)cc3c(c1O)C(=O)C1OC1C3=O)=CC2=O (centres unmarked) [Diosquinone, diosquinone]
Effect on leukotriene (LT) C4 levels evoked by IgE/antigen (in words) ([2]; 1 µM): unaffected
inhibition at 1 µM (RBL-2H3 cells [3]): 18.4 ± 8.07%
inhibition at 1 µM (RBL-2H3 cells [4]; Rattus norvegicus, RBL-2H3, 1 µM, maximal inhibition, mean±SEM, read-out: Degranulation inhibition (%) A23187 (decrease of β-hexosaminidase release)): < 15%
Hyaluronidase inhibition (%) ([5]; 100 µM): < 15 (100 µM) %

SMILES: O=C1C=CC(=O)c2c(O)cccc21 [Juglone, juglone]
inhibition at 183.5 µM (soybean lipoxidase; maximal inhibition): 53.1 ± 13.8%
inhibition at 10 µM (RBL-2H3 cells [3]; 10 µM): 39.2 ± 13.3%
inhibition at 10 µM (RBL-2H3 cells [4]; [7]): < 15%
Hyaluronidase inhibition (%) ([5]; 100 µM): < 15 (100 µM) %

IC50 ([2]; Rattus norvegicus, RBL-2H3, IgE/antigen evoked release, read-out: IC50 for decrease of LTC4 levels): 0.34 ± 0.018 µM
inhibition at 183.5 µM (soybean lipoxidase; maximal inhibition): 83.4 ± 6.8%
IC50 (soybean lipoxidase): 128 ± 9.38 µM
SMILES: CC1=CC(=O)c2ccccc2C1=O [Menadione, menadione]
Concentrations reported to reduce leukotriene production (leukotriene production): 50 to 200 µM
IC50 [6]: 5 µM
Effect on leukotriene (LT) C4 levels evoked by IgE/antigen (in words) ([2]; 5 nM (lowest concentration tested)): strongly decreased LTC4 levels
Effect on leukotriene (LT) C4 levels evoked by IgE/antigen (in words) ([2]; 5 µM): full inhibition
Effect on leukotriene (LT) C4 levels evoked by IgE/antigen (in words) ([2]; 5 µM, listed as menadione): completely abrogated
inhibition at 5 µM (RBL-2H3 cells [3]; 5 µM): < 15%
inhibition at 5 µM (RBL-2H3 cells [4]; Rattus norvegicus, RBL-2H3, 5 µM, maximal inhibition, mean±SEM, read-out: Degranulation inhibition (%) A23187 (decrease of β-hexosaminidase release)): < 15%
Hyaluronidase inhibition (%) ([5]; 100 µM): 23.8±6.06 (100 µM) %
